Assay [1] relates to Proteus mirabilis 18. The assay is described as follows: In vitro antibacterial activity, two-fold agar-plate dilution method. In kind it is cell-based. To be noted: HI-agar, incubation at 37°C for 20 hours, inoculum 10^8 viable cells per ml. Here is the method: (§1) In vitro antibacterial activity was determined by the two-fold agar-plate dilution method as described below. One loopful of an overnight culture of each test strain in Trypticase-soy broth (10^8 viable cells per ml.) was streaked on heart infusion agar (HI-agar) containing graded concentrations of test compound , and minimal inhibitory concentration (MIC) was expressed in terms of µg/ml after incubation at 37°C for 20 hours.

In assay [2] the test system is Proteus vulgaris 2. Described as above. Format: cell-based. To be noted: HI-agar, incubation at 37°C for 20 hours, inoculum 10^8 viable cells per ml. The method, then:
as §1

Here are results for 1 molecule from patent EP0118838A2, “New cephem compounds processes for preparation thereof and pharmaceutical compositions containing them” (FUJISAWA PHARMACEUTICAL CO., LTD., priority 1983, dated 1984).

The structures appear in SMILES notation.

As a reminder, the MIC is the least concentration at which growth counts as inhibited. The low end stands for a more susceptible organism, the high end for a less susceptible organism.

With `Nc1nc(/C(=N/OCC(=O)O)C(=O)NC2C(=O)N3C(C(=O)O)=C(CSc4snc(O)c4C(=O)O)CSC23)ns1` (stereo not drawn) [Test Compound, Sodium 7-[2-(5-amino-1,2,4-thiadiazol-3-yl)-2-carboxymethoxyiminoacetamido]-3-[(4-carboxy-3-hydroxyisothiazol-5-yl)thiomethyl]-3-cephem-4-carboxylate (syn isomer)], the MIC in assay [1] and in assay [2] was less than 0.025 µg/mL throughout.
